Laboratory results: ChEMBL document CHEMBL5096154, “A comprehensive review on the biological interest of quinoline and its derivatives” (Bioorg Med Chem, 2021)
Values after ≈ are worked out from the molar mass of the structure shown.

Assays:
Leishmania braziliensis = experiment: Antileishmanial activity against promastigote form of Leishmania braziliensis assessed as parasite growth inhibition; format: functional
[1] = tested on: Mycobacterium tuberculosis; experiment: Antimycobacterial activity against Mycobacterium tuberculosis H37Rv assessed as bacterial growth inhibition by microplate alamar blue assay; format: functional
Plasmodium falciparum = experiment: Antimalarial activity against chloroquine-resistant Plasmodium falciparum assessed as parasite growth inhibition measured for 24 to 72 hrs; format: functional, organism-based

SMILES | IC90 (Leishmania braziliensis) [µg/mL] | MIC [1] [µM] | also measured
CC1OC1c1ccc2ccccc2n1 (stereo unspecified) | 25 (≈ 135 µM) |  | 
CCCc1ccc2ccccc2n1 | 20 (≈ 117 µM) |  | 
COc1ccc(-c2nc3ncccc3c3ccoc23)cc1 |  | 5.6 | 
CN1c2ccccc2CCC1CCc1ccc2c(c1)OCO2 (stereo unspecified) |  |  | IC50 (Plasmodium falciparum): 276 nM
C/C=C/c1ccc2ccccc2n1 [CHIMANINE B] | 25 (≈ 148 µM) |  | 
CC[C@@H](CO)NCCN[C@@H](CC)CO [ETHAMBUTOL] |  | 7.6 | 
